How the values were obtained:
CDK2 = target: T1, CDK2 (Homo sapiens, UniProt P24941); assay: Binding assay (FRET, LanthaScreen Eu, Tracer236) for CDK2; details: for IC50: read-out: CDK2 IC50 (enzyme binding assay)
T1 construct: His; purchased Invitrogen PR4448B
Experimental: (§1) Inhibition activity of compound to CDK7 kinase was tested in a binding assay which was applied to the FRET (fluorescence resonance energy transfer) principle from the europium (Eu) donor fluorophore to the acceptor fluorophore on the kinase tracer. Test compounds were made to 1.125 mM of compound solution, and then this compound solution 4-fold serial diluted in 8 steps using an automated liquid handler (JANUS™, PerkinElmer). 80 nL/well of each diluted compound solution was added into the 384-well plate (Greiner, Cat #784075) first and 7.5 ul/well of working solution [5 nM of CDK7/CycH/MNAT1 (Invitrogen, Cat #PR6749B), 4 nM of Biotin anti-His Tag Antibody (Invitrogen, Cat #PV6090), and LanthaScreen® Eu-Streptavidin (Invitrogen, Cat #PV6025)] was added. After mixing the solution well, the same volume with the working solution of Tracer236 (Invitrogen, Cat #PV5592) was added into each well in the plate. The plate was incubated for 60 minutes at room temperature and then all the fluorescence were measured using Envision leader (Perkin Elmer, USA) [Laser as excitation light; […] as the first and the second emission filter]. Data was analysed using XL Fit software.
(§2) All of the synthesized compounds were screened in the above-mentioned assay procedure. To identify the inhibition activity of compounds for other CDKs including CDK1 (Invitrogen, Cat #PR4768C), CDK2 (Invitrogen, Cat #PR4448B) and CDK5 (Invitrogen, Cat #PR8543B) were tested using the same protocol under reasonable concentration of Tracer236 and kinases for each assay. The formula for the assay buffer summarized in below table.

CDK7 protein = target: T2, CDK7 protein (Homo sapiens, UniProt P50613); assay: Western blot assay for CDK7 protein degradation in A2780 cells; format: cell-based; details: 24 hours; for DC50: read-out: Compound concentration that caused 50% CDK7 protein degradation in A2780 cells (DC50);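 for all read-outs here: A is DC50 up to 100 nM B is 100 to 1000 nM C is above 1000 nM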
T2 construct: To verify endogenous CDK7 protein degradation; endogenous in cells; host or cells: A2780 (ECACC 93112519)
T2 sequence (P50613 whole entry): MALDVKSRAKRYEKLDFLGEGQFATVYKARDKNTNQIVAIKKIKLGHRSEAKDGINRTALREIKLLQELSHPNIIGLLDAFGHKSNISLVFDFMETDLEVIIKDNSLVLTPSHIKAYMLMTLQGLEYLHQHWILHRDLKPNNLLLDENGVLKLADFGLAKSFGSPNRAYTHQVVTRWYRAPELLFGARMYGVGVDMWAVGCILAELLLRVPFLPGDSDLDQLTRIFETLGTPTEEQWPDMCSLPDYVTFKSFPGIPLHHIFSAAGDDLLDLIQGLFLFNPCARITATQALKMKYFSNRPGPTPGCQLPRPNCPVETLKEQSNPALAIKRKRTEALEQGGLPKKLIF
Experimental: Human ovarian cancer cell line, A2780 (Cat #93112519) was obtained from ECACC. Cells were grown in RPMI-1640 media (Invitrogen, Cat #22400105) supplemented with 10% FBS (Hyclone, Cat #SH30084.03) and 1% penicillin/streptomycin (Hyclone, Cat #SV30010) and cultured at 37° C., 5% Co2 in a humidified chamber. All cell lines were routinely tested for mycoplasma.
To verify endogenous CDK7 protein degradation upon treatment of CDK7-specific degrader, the western blot assay was conducted a 24 hours' time period. 6×10^5 cells/well of A2780 cells were plated in 6-well plate. After 24 hours, the cells were treated with various concentrations of the compound corresponding range. DMSO solvent without compound served as a control and final DMSO concentration was not to exceed 0.1% of total volume. After 24 hours of incubation at 37° C., 5% Co2 incubator, cells were collected and lysed with 60 ul of lysis buffer. Collected lysates were incubated for 30 min on ice and collect supernatant through centrifugation at 12,000 rpm for 10 min at 4° C. The protein in lysates were quantified with BCA protein quantification kit (Pierce, Cat #23227) following manufacture's protocol. Cell lysates were diluted into 1 ug/ul of concentration with lysis buffer. 20 ug of protein was loaded to each well of 4˜12% Bis-Tris gel (Invitrogen, Cat #NP0336BOX) with MOPS running buffer (Invitrogen, Cat #NP0001). The proteins were transferred from gel to membrane and incubated with primary antibody as followed at 4° C. overnight; CDK7 (CST, Cat #2090S) and β-actin (Santa Cruz, Cat #sc-47778) 1:20,000. The signals were developed and acquired with ImageQuant™ LAS 4000.

CDK5 = target: T3, CDK5 (Homo sapiens, UniProt Q00535); assay: Binding assay (FRET, LanthaScreen Eu, Tracer236) for CDK5; details: for IC50: read-out: CDK5 IC50 (enzyme binding assay)
T3 construct: His; purchased Invitrogen PR8543B
T3 sequence (Q00535 whole entry): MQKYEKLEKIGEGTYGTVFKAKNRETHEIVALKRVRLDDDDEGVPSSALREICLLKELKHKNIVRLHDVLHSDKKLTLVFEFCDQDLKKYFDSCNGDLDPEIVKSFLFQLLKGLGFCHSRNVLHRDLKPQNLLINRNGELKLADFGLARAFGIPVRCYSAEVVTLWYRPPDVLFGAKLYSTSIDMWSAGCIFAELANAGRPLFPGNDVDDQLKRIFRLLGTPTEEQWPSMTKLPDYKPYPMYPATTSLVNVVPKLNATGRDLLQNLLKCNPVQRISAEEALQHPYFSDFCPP
T3 sequence (Q15078 99-307 partner limits assumed): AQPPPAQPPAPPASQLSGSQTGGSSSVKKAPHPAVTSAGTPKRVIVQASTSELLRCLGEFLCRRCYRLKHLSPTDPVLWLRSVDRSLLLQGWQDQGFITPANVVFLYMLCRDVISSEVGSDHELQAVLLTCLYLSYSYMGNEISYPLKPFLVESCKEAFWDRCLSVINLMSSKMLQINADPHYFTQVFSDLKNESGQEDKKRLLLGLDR
Experimental: as §1, §2

CDK1 = target: T4, CDK1 (Homo sapiens, UniProt P06493); assay: Binding assay (FRET, LanthaScreen Eu, Tracer236) for CDK1; details: for IC50: read-out: CDK1 IC50 (enzyme binding assay)
T4 construct: His; purchased Invitrogen PR4768C
T4 sequence (P06493 whole entry): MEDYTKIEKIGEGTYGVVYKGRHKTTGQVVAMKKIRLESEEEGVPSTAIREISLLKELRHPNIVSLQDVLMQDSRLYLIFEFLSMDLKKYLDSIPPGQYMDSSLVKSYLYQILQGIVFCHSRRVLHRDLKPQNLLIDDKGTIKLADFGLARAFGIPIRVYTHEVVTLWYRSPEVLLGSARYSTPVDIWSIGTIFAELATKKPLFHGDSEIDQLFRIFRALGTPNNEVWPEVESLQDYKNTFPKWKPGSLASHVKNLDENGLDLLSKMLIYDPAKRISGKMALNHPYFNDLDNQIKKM
T4 sequence (P14635 whole entry partner): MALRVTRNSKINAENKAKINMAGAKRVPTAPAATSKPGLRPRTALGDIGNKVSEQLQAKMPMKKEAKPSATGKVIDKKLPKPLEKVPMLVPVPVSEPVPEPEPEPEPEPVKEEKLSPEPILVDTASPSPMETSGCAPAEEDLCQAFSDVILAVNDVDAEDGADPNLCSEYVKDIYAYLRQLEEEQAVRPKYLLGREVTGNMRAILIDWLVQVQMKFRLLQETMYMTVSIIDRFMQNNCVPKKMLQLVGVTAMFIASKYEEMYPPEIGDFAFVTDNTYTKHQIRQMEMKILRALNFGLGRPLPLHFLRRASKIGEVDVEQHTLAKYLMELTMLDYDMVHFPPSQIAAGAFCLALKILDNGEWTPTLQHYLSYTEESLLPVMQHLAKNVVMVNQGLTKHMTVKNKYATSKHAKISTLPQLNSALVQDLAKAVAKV
Experimental: as §1, §2

CDK7/CycH/MNAT1 = target: T5, CDK7/CycH/MNAT1 (Homo sapiens, UniProt P50613); assay: Binding assay (FRET, LanthaScreen Eu, Tracer236) for CDK7; details: read-out: CDK7 IC50 (enzyme binding assay)
T5 construct: His; purchased Invitrogen PR6749B
T5 sequence (P50613 whole entry): as the sequence (P50613 whole entry) above
T5 sequence (P51946 whole entry partner): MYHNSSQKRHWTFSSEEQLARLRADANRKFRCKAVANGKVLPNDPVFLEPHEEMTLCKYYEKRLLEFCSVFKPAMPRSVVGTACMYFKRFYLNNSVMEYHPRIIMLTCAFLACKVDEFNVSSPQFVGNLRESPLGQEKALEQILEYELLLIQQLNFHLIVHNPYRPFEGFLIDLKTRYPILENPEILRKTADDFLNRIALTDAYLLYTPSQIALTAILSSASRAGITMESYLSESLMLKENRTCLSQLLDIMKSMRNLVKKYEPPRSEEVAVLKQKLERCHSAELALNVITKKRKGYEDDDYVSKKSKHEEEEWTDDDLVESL
T5 sequence (P51948 whole entry partner): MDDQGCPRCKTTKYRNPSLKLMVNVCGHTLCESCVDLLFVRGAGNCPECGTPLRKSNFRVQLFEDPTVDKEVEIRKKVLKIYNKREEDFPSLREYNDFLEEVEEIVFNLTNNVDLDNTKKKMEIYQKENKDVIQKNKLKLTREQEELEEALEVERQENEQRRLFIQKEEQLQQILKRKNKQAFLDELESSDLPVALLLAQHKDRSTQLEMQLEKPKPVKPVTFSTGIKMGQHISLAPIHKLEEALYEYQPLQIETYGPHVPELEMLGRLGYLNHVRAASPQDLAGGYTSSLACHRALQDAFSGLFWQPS
Experimental: as §1, §2

Compound	CDK2/CDK7: Selectivity of CDK7 inhibition over CDK2 inhibition (CDK2)	IC50 (CDK2) [µM]	Compound concentration that caused 50% CDK7 protein degradation in A2780 cells (DC50, nM) (CDK7 protein)	DC50 (CDK7 protein) [µM]	CDK5/CDK7: Selectivity of CDK7 inhibition over CDK5 inhibition (CDK5)	IC50 (CDK5) [µM]	CDK1/CDK7: Selectivity of CDK7 inhibition over CDK1 inhibition (CDK1)	IC50 (CDK1) [µM]	IC50 (CDK7/CycH/MNAT1) [µM]
CC(C)c1cnn2c(NCc3ccccc3-c3nccc4cc(NCCOCCOCCNC(=O)CNc5cccc6c5C(=O)N(C5CCC(=O)NC5=O)C6=O)ccc34)nc(O[C@@H]3CCCNC3)nc12 (some centres unmarked) [Compound 7]	A (A indicates [fold] > 500)	> 1	B or A	0.1 to 1	A (A indicates [fold] > 500)	> 1	A (A indicates [fold] > 500)	> 1	≤ 0.1
CC(C)c1cnn2c(NCc3ccccc3-c3nccc4cc(NC(=O)COCCOCCOCCNC(=O)CNc5cccc6c5C(=O)N(C5CCC(=O)NC5=O)C6=O)ccc34)nc(O[C@@H]3CCCNC3)nc12 (some centres unmarked) [Compound 9]	A (A indicates [fold] > 500)	> 1	B or A		A (A indicates [fold] > 500)	> 1	A (A indicates [fold] > 500)	> 1	≤ 0.1
CC(C)c1cnn2c(NCc3ccccc3-c3nccc4cc(NCCOCCOCCNC(=O)CNc5ccc6c(c5)C(=O)N(C5CCC(=O)NC5=O)C6=O)ccc34)nc(O[C@@H]3CCCNC3)nc12 (some centres unmarked) [Compound 10]	A (A indicates [fold] > 500)	> 1	B or A	0.1 to 1	A (A indicates [fold] > 500)	> 1	A (A indicates [fold] > 500)	> 1	≤ 0.1
Cc1ncsc1-c1ccc(CNC(=O)[C@@H]2C[C@@H](O)CN2C(=O)[C@@H](NC(=O)C2(F)CC2)C(C)(C)C)c(OCCOCCOCCNc2ccc3c(-c4ccccc4CNc4nc(O[C@@H]5CCCNC5)nc5c(C(C)C)cnn45)nccc3c2)c1 [Compound 11]	A (A indicates [fold] > 500)	> 1		≤ 0.1	A (A indicates [fold] > 500)	> 1	A (A indicates [fold] > 500)	> 1	≤ 0.1
CNCC(=O)N[C@H](C(=O)N1C[C@@H](Oc2cccc(OCCOCCOCCNc3ccc4c(-c5ccccc5CNc5nc(O[C@@H]6CCCNC6)nc6c(C(C)C)cnn56)nccc4c3)c2)C[C@H]1C(=O)N[C@@H]1CCCc2ccccc21)C1CCCCC1 [Compound 12]	A (A indicates [fold] > 500)	> 1		> 1	A (A indicates [fold] > 500)	> 1	A (A indicates [fold] > 500)	> 1	≤ 0.1
CC(C)C[C@H](NC(=O)[C@@H](O)[C@H](N)Cc1ccccc1)C(=O)NCCOCCOCCNc1ccc2c(-c3ccccc3CNc3nc(O[C@@H]4CCCNC4)nc4c(C(C)C)cnn34)nccc2c1 [Compound 13]	A (A indicates [fold] > 500)	> 1		> 1	A (A indicates [fold] > 500)	> 1	A (A indicates [fold] > 500)	> 1	≤ 0.1
CC(C)c1cnn2c(NCc3ccccc3-c3nccc4cc(NCCOCCOCCNC(=O)CNc5cccc6c5CN(C5CCC(=O)NC5=O)C6=O)ccc34)nc(O[C@@H]3CCCNC3)nc12 (some centres unmarked) [Compound 14]	A (A indicates [fold] > 500)	> 1	B or A	0.1 to 1	A (A indicates [fold] > 500)	> 1	A (A indicates [fold] > 500)	> 1	≤ 0.1
Cc1ncsc1-c1ccc(CNC(=O)[C@@H]2C[C@@H](O)CN2C(=O)[C@@H](NC(=O)CCOCCOCCNc2ccc3c(-c4ccccc4CNc4nc(O[C@@H]5CCCNC5)nc5c(C(C)C)cnn45)nccc3c2)C(C)(C)C)cc1 [Compound 15]	A (A indicates [fold] > 500)	> 1		≤ 0.1	A (A indicates [fold] > 500)	> 1	A (A indicates [fold] > 500)	> 1	≤ 0.1
CC(C)c1cnn2c(NCc3ccccc3-c3nccc4cc(NCCOCCOCCNC(=O)CNc5ccc6c(c5)CN(C5CCC(=O)NC5=O)C6=O)ccc34)nc(O[C@@H]3CCCNC3)nc12 (some centres unmarked) [Compound 16]	A (A indicates [fold] > 500)	> 1	B or A	0.1 to 1	A (A indicates [fold] > 500)	> 1	A (A indicates [fold] > 500)	> 1	≤ 0.1
CC(C)c1cnn2c(NCc3ccccc3-c3nccc4cc(N5CCC(CN6CCN(c7cc8c(cc7F)C(=O)N(C7CCC(=O)NC7=O)C8=O)CC6)CC5)ccc34)nc(O[C@@H]3CCCNC3)nc12 (some centres unmarked) [Compound 36]	B (B indicates 50 < [fold] ≤ 500)	> 1			B (B indicates 50 < [fold] ≤ 500)	> 1	B (B indicates 50 < [fold] ≤ 500)	> 1	≤ 0.1

— patent publication US20240343732A1, “COMPOUNDS FOR DEGRADATION OF CYCLIN-DEPENDENT KINASE 7(CDK7)” (QURIENT CO., LTD., priority 2021, published 2024)
